Assays:
[1] = tested on: EpH4-A6 cells; experiment: anti-BrdU cytoblot assay (BrdU incorporation); format: cell-based, mouse
Description: In order to look for selective inhibitors of cell proliferation dependent on Neu, a chemical library was screened using a cytoblot assay. The ability of small molecules to inhibit cell proliferation at a final concentration of […] determined by the relative incorporation of BrdU into DNA in EpH4-A6 Neu-overexpressing and EpH4-EV control cells.
A modified version of a protocol previously described was used for the cytoblot assay (Stockwell et al. (1999) Chem Biol 6(2), 71-83). Briefly, for this cytoblot assay, 2,000 control (EpH4-EV) and Neu overexpressing (EpH4-A6) cells were seeded in 40 μL of growing medium in duplicate in each well of a white […] plate (Costar). 16,000 compounds from a chemical library (Chembridge) were transferred to each well to a final concentration of 10-15 μM. Plates were incubated at 37° C. with 5% CO2 for 36 hours. BrdU was then added to a final concentration of 20 μM and the cells were incubated at 37° C. with 5% CO2 for an additional 3 hours. Cells were then washed with PBS and fixed with 75% ethanol/25%TBS at 4° C. for 1 hour. DNA denaturation was achieved by incubation with 2M HCl/0.5% Tween-20 for 20 min, followed by neutralization with 2M NaOH in Hank's Balanced Salt Solution (HBSS). Cells were subsequently washed with HBSS, blocked with PBS/0.3% Tween-20/1% BSA (PSTB), and incubated with 0.5 μg/mL of mouse anti-BrdU antibody (PharMingen) and 1:5,000 dilution of anti-mouse IgG coupled to HRP in PBSTB for 1 hour at room temperature. Finally the cells were washed with PBS and 20 μL of 1:1 mix of the enhanced chemiluminescence reagent (Pierce) was then added to each well of a plate. In every case addition of reagents was done using a mutli-drop 384 liquid dispenser (Labsystems) and the washes using a plate washer (Bio-Tek Instruments). Chemiluminescent signal from each plate was detected by autoradiograph and multilabel counter Victor^2 (Wallac) in order to quantitate results. A control cytoblot using inhibitory anti-Neu monoclonal antibodies was performed following the same procedure with the exception that anti-Neu antibody was added to the medium at a final concentration of 20 μg/mL.
The potency of these 55 small molecules was then evaluated at lower concentrations, i.e., at 10 μM and 1 μM using the cytoblot assay described above. […] These six compounds are referred to as E20 (ID 141525); F12 (ID 120590); F16 (ID 274873); H10 (ID 120670); J6 (ID 120856); N12 (ID 215015), and their structure is shown in FIGS. 2 A-F, respectively. […] These two compounds are referred to as L4 (ID 121113); B15(ID217496) […]. FIGS. 2 A-H also show proton NMR spectra of each of the molecules that confirmed their identity. […]

[2] = tested on: A6 cells; experiment: electron-microscopy analysis of mitochondria; format: cell-based, mouse; settings: 3 μM F16, abnormalities evident as early as 15 hr
Description: (§1) Electron-microscopy analysis was performed on untreated or F16-treated A6 cells, control cells and tumor cell lines SH1.1 and SMF to search for potential mitochondria lesions due to F16 accumulation. Cells grown in 35 mm dishes were left untreated or treated with 3 μM F16 for the indicated times, and fixed for 1 hr at room temperature in 0.1 M Cacodylate buffer containing 1.25% formaldehyde, 2.5% glutaraldehyde and 0.3% picric acid. Samples were then treated with 1% osmiuntetroxide/1.5% potassiumferrocyanide, followed by 1% uranyl acetate, dehydrated and epon-araldite embedded. Ultrathin sections were examined using a JEOL 1200EX microscope.

[3] = tested on: control cells; experiment: electron-microscopy analysis of mitochondria; format: cell-based, mouse; settings: 3 μM F16
Description: as §1

[4] = tested on: β-catenin-initiated mouse breast tumor cell lines
[5] = FACS analysis of F16 in tumor cell populations; format: in vivo, mouse; settings: tumors of F16-treated nude mice
Description: Several tumor cell populations from F16 treated and untreated mice were analyzed by FACS, in order to determine the presence of F16 in the cells.

[6] = tested on: mice; experiment: tolerability of intraperitoneal F16 in mice
[7] = tested on: EpH4-EV and EpH4-A6 cells; experiment: intracellular colocalization with Mitotracker Red / Lysotracker Red / Hoescht; format: cell-based, mouse; settings: 3 μM F16, 2 hours
Description: 2×10^4 EpH4-EV and EpH4-A6 cells were seeded in 6 well chamber slides. Next morning, cells were left untreated or treated with F16 at 3 μM for 2 hours. Cells were incubated with Hoescht stain for 30 minutes and then visualized under the microscope. Hoescht stain specifically stains the nuclei of cells. A mitochondrial specific stain, Mitotracker Red (Molecular Probes), was added to the medium to stain mitochondria, and Lysotracker Red to stain lysosomes and acidic compartments, according to manufacturer procedure. Hoescht stain was also included in the medium (together with the other stains). Cells were photographed under Axioskop (Zeiss) using a Spot Camera (Diagnostic Instruments).

[8] = tested on: BT474; experiment: cell count proliferation assay; format: cell-based; design: key: +: A positive scoring in these Tables represent cells in which a 2-5 and a 10-40 fold reduction in the total number of cells relative to the control untreated cells was observed after 3 and 7 days of culture with F16, respectively; settings: BT474, human breast; F16 3 μM, cells counted after 3 and 7 days

## C[n+]1ccc(/C=C/c2c[nH]c3ccccc23)cc1.[I-] [F16]
[1]; EpH4-A6 cells at 10 μM
  score in anti-BrdU cytoblot: positive
[1]; EpH4-A6 cells, concentrations from 100 to 0.01 μM, FIG. 3
  concentration up to which anti-proliferative activity is retained: 100 nM
[1]; EpH4-A6 cells, cytoblot
  concentration at which F16 is effective / partially inhibits BrdU incorporation (as low as): 10 nM
  concentration at which anti-proliferative activity was shown (as low as): 1 µM
[2]
  mitochondrial ultrastructure: progressive swelling and disruption of mitochondrial integrity
[3]
  mitochondrial ultrastructure: no abnormalities in mitochondria morphology
[4]
  selectivity for β-catenin-initiated mouse breast tumor cell lines: to some extent selectivity
[5]
  presence of F16 in tumor cells (fluorescent signal, FACS): delivered to the tumor cell mass
[6]; 50 mg/kg, a few hours after the injection
  deaths after injection: one mouse out of 5
[6]; intraperitoneal injection, mice
  maximum tolerable dose (MTD): ~50 mg/kg
[7]
  intracellular localization of F16 staining: overlapped with the mitochondrial staining, but not with the lysosomal staining
[8]
  F16 response: +
